Legend:
Ocy454 cells = assay: RNA-seq of treated Ocy454 cells; assay type: cell-based, mouse
Protocol: The ability of YKL-05-093 to mimic the effects of PTH with respect to SOST and RANKL gene regulation supports the hypothesis that the actions of YKL-05-093 might mimic the effects of PTH on many genes. Therefore, RNA-seq was perfumed on Ocy454 cells treated for four hours with vehicle, PTH (1 nM), or YKL-05-093 (0.5 μM) to determine the overlap in global gene regulation by these two agents. […] Of the 446 PTH-regulated genes, 142 (32%) were co-regulated in the same direction by YKL-05-093 (FIGS. 6A and 6B and Table 3 for differentially expressed genes, and Table 4 for all RNA-seq data). This significant overlap was not due to random chance (FIGS. 15A and 15B). Gene ontology analysis for the genes regulated by both PTH and YKL-05-093 is shown in FIGS. 15C and 15D: many of the co-regulated genes fit into categories of interest such as “ossification” and “mesenchyme development”,
Total RNA was subjected to rRNA depletion using RiboZero kit (Illumina) followed by NGS library construction using NEBNext Ultra Directional RNA Library Prep Kit for Illumina (New England Biolabs). Experimental duplicates were performed for each condition. Sequencing was performed on Illumina HiSeq 2500 instrument, resulting in an average of 33 million pairs of 50 bp reads per sample. Sequencing reads were mapped to the mouse reference genome (mm10/GRCm38) using STAR (bioinformatics.oxfordjournals.org/content/early/2012/10/25/bioinformatics.bts635). Gene expression counts were calculated using HTSeq v.0.6.0 (www.huber.embl.de/users/anders/HITSeq/doc/overview.html) based on a current Ensembl annotation file for mm10/GRCm38 (release 75). Differential expression analysis was performed using EgdeR package based on the criteria of >2-fold change in expression value versus control and false discovery rates (FDR)<0.05. Venn diagrams from gene set analysis were generated using genes with >1.5 fold change in expression values and FDR <0.05. Significance testing for gene set overlap was performed according to a standard hypergeometric distribution, p-values <2.2*10^−16. The accession number for the RNA-seq dataset reporter in this paper is GEO: GSE76932 (www.ncbi.nlm.nih.gov/geo/query/acc.cgi?acc=GSE76932).

[1] = system: oophorectomized (OVX) female C57B/6 mice; assay: OVX mice: micro-CT, histomorphometry, bone turnover markers; assay type: in vivo, mouse
Protocol: Assessment of bone morphology and microarchitecture was performed with high-resolution micro-computed tomography (pCT40; Scanco Medical, Brüttisellen, Switzerland). In brief, the distal femoral metaphysis and mid-diaphysis were scanned using 70 kVp peak x-ray tube potential, 113 mAs x-ray tube current, 200 ms integration time, and 10-μm isotropic voxel size. Cancellous bone was assessed in the distal metaphysis and cortical bone was assessed in the mid-diaphysis. The femoral metaphysis region began 1700 μm proximal to the distal growth plate and extended 1500 μm distally. Cancellous bone was separated from cortical bone with a semiautomated contouring program. For the cancellous bone region, bone volume fraction (BV/TV, %), trabecular thickness (Tb.Th, mm), trabecular separation (Tb.Sp, mm), trabecular number (Tb.N, 1/mm), connectivity density (Conn.D or ConnD, 1/mm^3), and structure model index (SMI) were assessed. Transverse CT slices were also acquired in a 500 μm long region at the femoral mid-diaphysis to assess total cross-sectional area, cortical bone area, and medullary area (Tt.Ar, Ct.Ar, and Ma.Ar, respectively, all mm^2); bone area fraction (Ct.Ar/Tt.Ar, %), cortical thickness (Ct.Th, mm), porosity (Ct.Po, %) and minimum (Imin, mm^4), maximum (Imax, mm^4), and polar (J, mm^4) moments of inertia. Bone was segmented from soft tissue using the same threshold, 300 mg HA/cm^3 for trabecular and 733 mg HA/cm^3 for cortical bone. Scanning and analyses adhered to the guidelines for the use of micro-CT for the assessment of bone architecture in rodents (74). For the primary spongiosa region (where intermittent PTH treatment has its predominant effect) analyzed in FIG. 13A, coronal CT slices were evaluated in a 500 μm (50 slices) region located centrally in the bone. […] The primary spongiosa bone region was identified by semi-manually contouring the region of interest. Images were thresholded using an adaptive-iterative algorithm. The average adaptive-iterative threshold of control mice (WT, vehicle treated) for the region of interest (299 mgHA/cm^3) were then used to segment bone from soft tissue for all distal femur images. Micro-CT analysis was done based on sample numbers in a completely blinded manner.
Right tibia from 8-week-old mice were subjected to bone histomorphometric analysis. […] The structural, dynamic and cellular parameters were calculated and expressed according to the standardized nomenclature (75).
48 female C57B/6 mice were subjected to sham surgery (SHAM; n=24) or oophorectomy (n=24) at 12 weeks of age. […] The mice were assessed by micro-CT (μ-CT) of the femur and L5 vertebrae, and static/dynamic histomorphometry of the tibia.

Row | SMILES | genes down-regulated by both PTH and YKL-05-093 (Ocy454 cells) | genes down-regulated by the agent alone (Ocy454 cells) | genes up-regulated by both PTH and YKL-05-093 (Ocy454 cells) | genes up-regulated by the agent alone (Ocy454 cells) | osteoblast numbers ([1]; FIG. 32A) | osteoclast activity / eroded surfaces ([1]; FIG. 32C) | bone formation rate ([1]; FIG. 33C) | trabecular bone mass ([1]; distal femur and L5 vertebrae)
1 | COc1ccc(N2C(=O)N(c3c(C)cccc3C)Cc3cnc(Nc4ccc(C5CCN(C)CC5)c(OC)c4)nc32)c(OC)c1 [YKL-05-093] | 45 genes | 59 genes | 97 genes | 56 genes |  |  |  | 
2 | COc1ccc(N2C(=O)N(c3c(C)cccc3Cl)Cc3cnc(Nc4ccc(C5CCN(C)CC5)cc4OC)nc32)nc1 [YKL-05-099] |  |  |  |  | increased osteoblast numbers | reduced eroded surfaces | increased | increased trabecular bone mass at both skeletal sites

— US12121521B2, “Uses of salt-inducible kinase (SIK) inhibitors for treating osteoporosis” (The General Hospital Corporation, priority 2016, dated 2024)
